{
  "source": "patent US20240208940A1",
  "about": "“SMALL-MOLECULE INHIBITORS FOR BETA-CATENIN/BCELL LYMPHOMA 9 PROTEIN-PROTEIN INTERACTION” (H. LEE MOFFITT CANCER CENTER AND RESEARCH INSTITUTE, INC., priority 2021, published 2024)",
  "biological_target": "β-catenin/BCL9 PPI (Homo sapiens (Human), UniProt P35222)",
  "sequence (P35222 whole entry)": "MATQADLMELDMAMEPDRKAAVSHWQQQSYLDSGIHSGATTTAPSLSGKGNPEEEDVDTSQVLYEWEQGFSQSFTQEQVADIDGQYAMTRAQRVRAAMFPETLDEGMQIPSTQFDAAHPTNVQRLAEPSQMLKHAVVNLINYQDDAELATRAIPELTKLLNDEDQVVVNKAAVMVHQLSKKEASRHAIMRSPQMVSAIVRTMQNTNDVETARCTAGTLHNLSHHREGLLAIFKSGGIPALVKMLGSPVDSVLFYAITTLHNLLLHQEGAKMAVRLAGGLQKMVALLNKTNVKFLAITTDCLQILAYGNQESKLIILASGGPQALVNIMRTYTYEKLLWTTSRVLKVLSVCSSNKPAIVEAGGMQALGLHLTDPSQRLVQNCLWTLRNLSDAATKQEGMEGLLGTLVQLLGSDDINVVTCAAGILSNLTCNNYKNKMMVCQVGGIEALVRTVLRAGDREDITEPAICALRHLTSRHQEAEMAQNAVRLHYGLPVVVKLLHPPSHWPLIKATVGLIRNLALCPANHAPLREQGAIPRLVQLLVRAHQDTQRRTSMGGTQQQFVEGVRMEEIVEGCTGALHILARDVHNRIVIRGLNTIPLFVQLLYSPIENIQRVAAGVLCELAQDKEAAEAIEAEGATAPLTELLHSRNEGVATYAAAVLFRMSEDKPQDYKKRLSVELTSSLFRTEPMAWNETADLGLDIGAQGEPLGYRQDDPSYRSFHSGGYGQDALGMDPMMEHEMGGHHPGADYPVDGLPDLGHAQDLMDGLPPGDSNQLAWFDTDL",
  "test": "AlphaScreen competitive inhibition assay of β-catenin/BCL9 PPI",
  "assay_type": "binding",
  "conditions": "mean ± standard deviation (n = 3); for Ki: derived from IC50, read-out: Ki ± SD",
  "method": "AlphaScreen Assays of β-Catenin and BCL9 Interaction. Experiments were performed in white opaque 384-well plates from PerkinElmer (Waltham, MA), and the samples were read on a Biotek Synergy 2 plate reader (Winooski, VT) with excitation at 680 nm and emission at 570 nm. The standard AlphaScreen protocol was used with a sensitivity setting of 200. All dilutions were made in 1× assay buffer containing 25 mM Hepes (pH 7.4), 100 mM NaCl, 0.01% Triton X-100 and 0.1% BSA to minimize nonspecific interactions. For the competitive inhibition assays of β-catenin/BCL9 PPI, the negative control (equivalent to 0% inhibition) refers to 5.0 nM biotinylated BCL9, 50 nM His6-tagged β-catenin, and 10 μg/mL donor and acceptor beads in a final volume of 25 μL assay buffer, but no tested inhibitor present. The positive control (equivalent to 100% inhibition) refers to 5.0 nM biotinylated BCL9 and 10 μg/mL donor and acceptor beads in a final volume of 25 μL assay buffer.\nFor the β-catenin/BCL9 assay, 5 nM biotinylated BCL9 and 50 nM His6-tagged β-catenin were incubated in assay buffer for 30 min. Different concentrations of the tested inhibitor were added and incubated in 20 μL assay buffer for another 1 h. All of the assay plates were covered and gently mixed on an orbital shaker. The donor and acceptor beads were then added to the plates to a final concentration of 10 μg/mL in 25 μL assay buffer. The mixture was incubated for 1 h before detection. The IC50 value was determined by nonlinear least-square analysis of GraphPad Prism 8.0. The Ki values were derived from the IC50 values using a method reported by Wang and coworkers.^65 The equation used is Ki=[I]50/([L]50/Kd+[P]0/Kd+1) (Where [I]50 denotes the concentration of the free inhibitor at 50% inhibition, [L]50 is the concentration of the free labeled ligand at 50% inhibition, [P]0 is the concentration of the free protein at 0% inhibition, and Kd is the dissociation constant of the protein-ligand complex). All of the experiments were performed in triplicate and carried out in the presence of 1% DMSO for small-molecule inhibitors. Each compound was assayed at least by three independent experiments. The results were expressed as mean±standard deviation.",
  "note": "Where a name gives a salt, the structure may show the parent alone.",
  "data": [
    {"smiles": "CNC(=O)c1ccc(N2CCNCC2)cc1OC1CCN(C(=O)c2ccc(O[C@H]3CCNC3)c(C3CCC(C(C)(C)C)CC3)c2)CC1", "note": "(stereo in doubt) [Compound 42, cis- and trans-(S)-2-((1-(3-(4-(tert-butyl)cyclohexyl)-4-(pyrrolidin-3-yloxy)benzoyl)piperidin-4-yl)oxy)-N-methyl-4-(piperazin-1-yl)benzamide dihydrochloride]", "values": [
      {"measurement": "Ki", "value": "≤ 50", "unit": "µM"},
      {"measurement": "IC50", "value": "≤ 50", "unit": "µM"}
    ]},
    {"smiles": "CC(C)C(=O)N1CCC(c2cc(C(=O)N3CCC(Oc4cc(F)cc(N5CCNCC5)c4)CC3)ccc2O[C@H]2CCNC2)CC1", "note": "[Compound 22, (S)-1-(4-(5-(4-(3-fluoro-5-(piperazin-1-yl)phenoxy)piperidine-1-carbonyl)-2-(pyrrolidin-3-yloxy)phenyl)piperidin-1-yl)-2-methylpropan-1-one dihydrochloride]", "values": [
      {"measurement": "Ki", "value": "≤ 50", "unit": "µM"},
      {"measurement": "IC50", "value": "≤ 50", "unit": "µM"}
    ]},
    {"smiles": "O=C(c1ccc(O[C@H]2CCNC2)c(C2CCCCC2)c1)N1CCC(Oc2cc(F)cc(N3C[C@H]4CNC[C@H]4C3)c2)CC1", "note": "[Compound 4, (S)-(3-cyclohexyl-4-(((S)-pyrrolidin-3-yl)oxy)phenyl)(4-(3-fluoro-5-((3aR,6aS)-hexahydropyrrolo[3,4-c]pyrrol-2(1H)-yl)phenoxy)piperidin-1-yl)methanone ditrifluoroacetic acid]", "values": [
      {"measurement": "Ki", "value": "> 84", "unit": "µM"},
      {"measurement": "IC50", "value": "> 100", "unit": "µM"}
    ]},
    {"smiles": "O=C(c1ccc(O[C@H]2CCNC2)c(-c2ccc3ccsc3c2)c1)N1CCC(Oc2cc(F)cc(N3CCNCC3)c2)CC1", "note": "[Compound 11, (S)-(3-(benzo[b]thiophen-6-yl)-4-(pyrrolidin-3-yloxy)phenyl)(4-(3-fluoro-5-(piperazin-1-yl)phenoxy)piperidin-1-yl)methanone dihydrochloride]", "values": [
      {"measurement": "Ki", "value": "≤ 5", "unit": "µM"},
      {"measurement": "IC50", "value": "≤ 5", "unit": "µM"}
    ]},
    {"smiles": "O=C(c1ccc(O[C@H]2CCNC2)c(-c2cn[nH]c2)c1)N1CCC(Oc2cc(F)cc(N3CCNCC3)c2)CC1", "note": "[Compound 17, (S)-(3-(1H-pyrazol-4-yl)-4-(pyrrolidin-3-yloxy)phenyl)(4-(3-fluoro-5-(piperazin-1-yl)phenoxy)piperidin-1-yl)methanone dihydrochloride]", "values": [
      {"measurement": "Ki", "value": "≤ 2", "unit": "µM"},
      {"measurement": "IC50", "value": "≤ 2", "unit": "µM"}
    ]},
    {"smiles": "CC(C)(C)C1CCC(c2cc(C(=O)N3CCC(Oc4cc(N5CCNCC5)ccc4C(N)=O)CC3)ccc2O[C@H]2CCNC2)CC1", "note": "(stereo in doubt) [Compound 41, cis- and trans-(S)-2-((1-(3-(4-(tert-butyl)cyclohexyl)-4-(pyrrolidin-3-yloxy)benzoyl)piperidin-4-yl)oxy)-4-(piperazin-1-yl)benzamide dihydrochloride]", "values": [
      {"measurement": "Ki", "value": "≤ 20", "unit": "µM"},
      {"measurement": "IC50", "value": "≤ 20", "unit": "µM"}
    ]},
    {"smiles": "O=C(c1ccc(O[C@H]2CCNC2)c(C2CCOCC2)c1)N1CCC(Oc2cc(F)cc(N3CCNCC3)c2)CC1", "note": "[Compound 20, (S)-(4-(3-fluoro-5-(piperazin-1-yl)phenoxy)piperidin-1-yl)(4-(pyrrolidin-3-yloxy)-3-(tetrahydro-2H-pyran-4-yl)phenyl)methanone dihydrochloride]", "values": [
      {"measurement": "Ki", "value": "~84", "unit": "µM"},
      {"measurement": "IC50", "value": "~100", "unit": "µM"}
    ]},
    {"smiles": "O=C(c1ccc(O[C@H]2CCNC2)c(-c2ccc3[nH]cnc3c2)c1)N1CCC(Oc2cc(F)cc(N3CCNCC3)c2)CC1", "note": "[Compound 16, (S)-(3-(1H-benzo[d]imidazol-5-yl)-4-(pyrrolidin-3-yloxy)phenyl)(4-(3-fluoro-5-(piperazin-1-yl)phenoxy)piperidin-1-yl)methanone dihydrochloride]", "values": [
      {"measurement": "Ki", "value": "≤ 50", "unit": "µM"},
      {"measurement": "IC50", "value": "≤ 50", "unit": "µM"}
    ]},
    {"smiles": "O=C(c1ccc(O[C@H]2CCNC2)c(-c2ccc3cn[nH]c3c2)c1)N1CCC(Oc2cc(F)cc(N3CCNCC3)c2)CC1", "note": "[Compound 15, (S)-(3-(1H-indazol-6-yl)-4-(pyrrolidin-3-yloxy)phenyl)(4-(3-fluoro-5-(piperazin-1-yl)phenoxy)piperidin-1-yl)methanone dihydrochloride]", "values": [
      {"measurement": "Ki", "value": "≤ 20", "unit": "µM"},
      {"measurement": "IC50", "value": "≤ 20", "unit": "µM"}
    ]},
    {"smiles": "O=C(c1ccc(O[C@H]2CCNC2)c(C2CCC(C(F)(F)F)CC2)c1)N1CCC(Oc2cc(F)cc(N3CCNCC3)c2)CC1", "note": "(stereo in doubt) [Compound 18, cis- and trans-(S)-(4-(3-fluoro-5-(piperazin-1-yl)phenoxy)piperidin-1-yl)(4-(pyrrolidin-3-yloxy)-3-(4-(trifluoromethyl)cyclohexyl)phenyl)methanone dihydrochloride]", "values": [
      {"measurement": "Ki", "value": "≤ 20", "unit": "µM"},
      {"measurement": "IC50", "value": "≤ 20", "unit": "µM"}
    ]},
    {"smiles": "CC(C)(C)C1CCC(c2cc(C(=O)N3CCC(Oc4cccc(N5CCNCC5)c4)CC3)ccc2O[C@H]2CCNC2)CC1", "note": "(stereo in doubt) [Compound 38, cis and trans-(S)-(3-(4-(tert-butyl)cyclohexyl)-4-(pyrrolidin-3-yloxy)phenyl)(4-(3-(piperazin-1-yl)phenoxy)piperidin-1-yl)methanone dihydrochloride]", "values": [
      {"measurement": "Ki", "value": "≤ 20", "unit": "µM"},
      {"measurement": "IC50", "value": "≤ 20", "unit": "µM"}
    ]},
    {"smiles": "CC(C)(C)C(=O)N1CCC(c2cc(C(=O)N3CCC(Oc4cc(F)cc(N5CCNCC5)c4)CC3)ccc2O[C@H]2CCNC2)CC1", "note": "[Compound 24, (S)-1-(4-(5-(4-(3-fluoro-5-(piperazin-1-yl)phenoxy)piperidine-1-carbonyl)-2-(pyrrolidin-3-yloxy)phenyl)piperidin-1-yl)-2,2-dimethylpropan-1-one dihydrochloride]", "values": [
      {"measurement": "Ki", "value": "~84", "unit": "µM"},
      {"measurement": "IC50", "value": "~100", "unit": "µM"}
    ]},
    {"smiles": "CC(C)(C)c1ccc(-c2cc(C(=O)N3CCC(Oc4cc(F)cc(N5CCNCC5)c4)CC3)ccc2O[C@H]2CCNC2)cc1", "note": "[Compound 10, (S)-(4′-(tert-butyl)-6-(pyrrolidin-3-yloxy)-[1,1′-biphenyl]-3-yl)(4-(3-fluoro-5-(piperazin-1-yl)phenoxy)piperidin-1-yl)methanone dihydrochloride]", "values": [
      {"measurement": "Ki", "value": "≤ 20", "unit": "µM"},
      {"measurement": "IC50", "value": "≤ 20", "unit": "µM"}
    ]},
    {"smiles": "O=C(c1ccc(O[C@H]2CCNC2)c(C2CCN(C(=O)C3CC3)CC2)c1)N1CCC(Oc2cc(F)cc(N3CCNCC3)c2)CC1", "note": "[Compound 21, (S)-(3-(1-(cyclopropanecarbonyl)piperidin-4-yl)-4-(pyrrolidin-3-yloxy)phenyl)(4-(3-fluoro-5-(piperazin-1-yl)phenoxy)piperidin-1-yl)methanone dihydrochloride]", "values": [
      {"measurement": "Ki", "value": "≤ 50", "unit": "µM"},
      {"measurement": "IC50", "value": "≤ 50", "unit": "µM"}
    ]},
    {"smiles": "CC(C)(C)C1CCC(c2cc(C(=O)N3CCC(Oc4cc(N5CCNCC5)ccc4C#N)CC3)ccc2O[C@H]2CCNC2)CC1", "note": "(stereo in doubt) [Compound 37, cis- and trans-(S)-2-((1-(3-(4-(tert-butyl)cyclohexyl)-4-(pyrrolidin-3-yloxy)benzoyl)piperidin-4-yl)oxy)-4-(piperazin-1-yl)benzonitrile dihydrochloride]", "values": [
      {"measurement": "Ki", "value": "≤ 2", "unit": "µM"},
      {"measurement": "IC50", "value": "≤ 2", "unit": "µM"}
    ]},
    {"smiles": "CC(C)(C)C1CCC(c2cc(C(=O)N3CCC(Oc4cc(N5CCNCC5)cc(C(F)(F)F)c4)CC3)ccc2O[C@H]2CCNC2)CC1", "note": "(stereo in doubt) [Compound 31, cis- and trans-(S)-(3-(4-(tert-butyl)cyclohexyl)-4-(pyrrolidin-3-yloxy)phenyl)(4-(3-(piperazin-1-yl)-5-(trifluoromethyl)phenoxy)piperidin-1-yl)methanone dihydrochloride]", "values": [
      {"measurement": "Ki", "value": "< 5", "unit": "µM"},
      {"measurement": "IC50", "value": "≤ 5", "unit": "µM"}
    ]},
    {"smiles": "O=C(c1ccc(O[C@H]2CCNC2)c(-c2ccccc2)c1)N1CCC(Oc2cc(F)cc(N3CCNCC3)c2)CC1", "note": "[Compound 8, (S)-(4-(3-fluoro-5-(piperazin-1-yl)phenoxy)piperidin-1-yl)(6-(pyrrolidin-3-yloxy)-[1,1′-biphenyl]-3-yl)methanone dihydrochloride]", "values": [
      {"measurement": "Ki", "value": "≤ 50", "unit": "µM"},
      {"measurement": "IC50", "value": "≤ 50", "unit": "µM"}
    ]},
    {"smiles": "CC(C)(C)C1CCC(c2cc(C(=O)N3CCC(Oc4cc(Cl)cc(N5CCNCC5)c4)CC3)ccc2O[C@H]2CCNC2)CC1", "note": "(stereo in doubt) [Compound 30, cis- and trans-(S)-(3-(4-(tert-butyl)cyclohexyl)-4-(pyrrolidin-3-yloxy)phenyl)(4-(3-chloro-5-(piperazin-1-yl)phenoxy)piperidin-1-yl)methanone dihydrochloride]", "values": [
      {"measurement": "Ki", "value": "≤ 5", "unit": "µM"},
      {"measurement": "IC50", "value": "≤ 5", "unit": "µM"}
    ]},
    {"smiles": "CC(C)(C)C1CCC(c2cc(C(=O)N3CCC(Oc4cc(C#N)cc(N5CCNCC5)c4)CC3)ccc2O[C@H]2CCNC2)CC1", "note": "(stereo in doubt) [Compound 32, cis- and trans-(S)-3-((1-(3-(4-(tert-butyl)cyclohexyl)-4-(pyrrolidin-3-yloxy)benzoyl)piperidin-4-yl)oxy)-5-(piperazin-1-yl)benzonitrile dihydrochloride]", "values": [
      {"measurement": "Ki", "value": "≤ 10", "unit": "µM"},
      {"measurement": "IC50", "value": "≤ 10", "unit": "µM"}
    ]},
    {"smiles": "CC(C)(C)C1CCC(c2cc(C(=O)N3CCC(Oc4cc(N5CCNCC5)ccc4C(=O)O)CC3)ccc2O[C@H]2CCNC2)CC1", "note": "(stereo in doubt) [Compound 40, cis- and trans-(S)-2-((1-(3-(4-(tert-butyl)cyclohexyl)-4-(pyrrolidin-3-yloxy)benzoyl)piperidin-4-yl)oxy)-4-(piperazin-1-yl)benzoic acid dihydrochloride]", "values": [
      {"measurement": "Ki", "value": "~84", "unit": "µM"},
      {"measurement": "IC50", "value": "~100", "unit": "µM"}
    ]}
  ]
}
